Experimental data taken from US20260232767A1, “INTERLEUKIN-23 RECEPTOR ANTAGONIST PEPTIDES FOR USE IN THE TREATMENT OF PSORIASIS” (Janssen Pharmaceutica NV, priority 2023, published 2026).

Test system: subjects with moderate-to-severe plaque psoriasis
Test: IGA score, Example 2
Format: in vivo, human
Conditions: for Subjects achieving IGA Score = 0 at Week 52 / Subjects achieving IGA Score = 0 or 1 at Week 52: non-responder imputation
Text: Described below is a multicenter, long-term extension (LTE), double-blind, dose-ranging, parallel group interventional study in participants from Example 1 to evaluate the long-term efficacy and safety of the hydrochloride salt of the compound of Formula (I) for the treatment of moderate-to-severe plaque psoriasis. Patients from Example 1 continued to receive the same dose of the compound of Formula (I) for an additional 36-week treatment period with a 4-week safety follow up period after the last administration of the compound of Formula (I). Patients randomized to placebo in Example 1 received the compound of Formula (I) at a dose of 100 mg QD starting at Week 16 of Example 1 (FIG. 21).
Secondary endpoints included additional change from baseline of Example 1 in PASI, IGA, and PSSD at Week 52, including the proportions of subjects that achieved PAST 90, PAST 100, an IGA score of cleared (0) or minimal (1), PSSD symptoms score=0, and PSSD signs score=0.

[1] = Placebo → 100 mg QD, crossed over at or after Week 16

## CC(=O)NCCCC[C@@H]1NC(=O)[C@H](Cc2c[nH]c3c(C)cccc23)NC(=O)[C@H]([C@@H](C)O)NC(=O)[C@H](CC(N)=O)NC(=O)[C@@H](NC(C)=O)C(C)(C)SSC(C)(C)[C@@H](C(=O)N[C@@H](Cc2ccc(OCCN)cc2)C(=O)N[C@@H](Cc2ccc3ccccc3c2)C(=O)NC2(C(=O)N[C@@H](CCC(=O)O)C(=O)N[C@@H](CC(N)=O)C(=O)N[C@@H](Cc3cccnc3)C(=O)N(C)CC(N)=O)CCOCC2)NC1=O [IL-23 receptor antagonist peptide, Ac-[Pen]*-N-T-[W(7-Me)]-[Lys(Ac)]-[Pen]*-Phe[4-(2-aminoethoxy)]-[2-Nal]-[THP]-E-N-[3-Pal]-Sarc-NH2 (*[Pen]-[Pen]* formdisulfidebond)]
25 mg BID
  Subjects achieving IGA Score = 0 at Week 52: (19.5%)
  Subjects achieving IGA Score = 0 or 1 at Week 52: (46.3%)
25 mg QD
  Subjects achieving IGA Score = 0 at Week 52: (14.0%)
  Subjects achieving IGA Score = 0 or 1 at Week 52: (37.2%)
50 mg QD
  Subjects achieving IGA Score = 0 at Week 52: (23.3%)
  Subjects achieving IGA Score = 0 or 1 at Week 52: (60.5%)
[1]
  Subjects achieving IGA Score = 0 at Week 52: 11 (31.4%)
  Subjects achieving IGA Score = 0 or 1 at Week 52: 23 (65.7%)
Week 1, 25 mg BID, N=41
  IGA Score ≤2 (‘Mild’or better), subjects (%): (7.3%)
Week 1, 25 mg QD, N=43
  IGA Score ≤2 (‘Mild’or better), subjects (%): (14.0%)
Week 1, 50 mg QD, N=43
  IGA Score = 0 (‘Cleared’) or 1 (‘Minimal’), subjects (%): (2.3%)
  IGA Score ≤2 (‘Mild’or better), subjects (%): (16.3%)
Week 1, 100 mg BID, N=42
  IGA Score = 0 (‘Cleared’) or 1 (‘Minimal’), subjects (%): (2.4%)
  IGA Score ≤2 (‘Mild’or better), subjects (%): (23.8%)
Week 1, 100 mg QD, N=43
  IGA Score = 0 (‘Cleared’) or 1 (‘Minimal’), subjects (%): (4.7%)
  IGA Score ≤2 (‘Mild’or better), subjects (%): (9.3%)
Week 2, 25 mg BID, N=41
  IGA Score = 0 (‘Cleared’) or 1 (‘Minimal’), subjects (%): (2.4%)
  IGA Score ≤2 (‘Mild’or better), subjects (%): (22.0%)
Week 2, 25 mg QD, N=43
  IGA Score ≤2 (‘Mild’or better), subjects (%): (20.9%)
Week 2, 50 mg QD, N=43
  IGA Score = 0 (‘Cleared’) or 1 (‘Minimal’), subjects (%): (7.0%)
  IGA Score ≤2 (‘Mild’or better), subjects (%): (34.9%)
Week 2, 100 mg BID, N=42
  IGA Score = 0 (‘Cleared’) or 1 (‘Minimal’), subjects (%): (9.5%)
  IGA Score ≤2 (‘Mild’or better), subjects (%): (33.3%)
Week 2, 100 mg QD, N=43
  IGA Score = 0 (‘Cleared’) or 1 (‘Minimal’), subjects (%): (4.7%)
  IGA Score ≤2 (‘Mild’or better), subjects (%): (34.9%)
Week 4, 25 mg BID, N=41
  IGA Score = 0 (‘Cleared’) or 1 (‘Minimal’), subjects (%): (17.1%)
  IGA Score ≤2 (‘Mild’or better), subjects (%): (51.2%)
Week 4, 25 mg QD, N=43
  IGA Score = 0 (‘Cleared’) or 1 (‘Minimal’), subjects (%): (9.3%)
  IGA Score ≤2 (‘Mild’or better), subjects (%): (44.2%)
Week 4, 50 mg QD, N=43
  IGA Score = 0 (‘Cleared’) or 1 (‘Minimal’), subjects (%): (16.3%)
  IGA Score ≤2 (‘Mild’or better), subjects (%): (48.8%)
Week 4, 100 mg BID, N=42
  IGA Score = 0 (‘Cleared’) or 1 (‘Minimal’), subjects (%): (38.1%)
  IGA Score ≤2 (‘Mild’or better), subjects (%): (69.0%)
Week 4, 100 mg QD, N=43
  IGA Score = 0 (‘Cleared’) or 1 (‘Minimal’), subjects (%): (20.9%)
  IGA Score ≤2 (‘Mild’or better), subjects (%): (65.1%)
Week 8, 25 mg BID, N=41
  IGA Score = 0 (‘Cleared’) or 1 (‘Minimal’), subjects (%): (26.8%)
  IGA Score = 0 (‘Cleared’), subjects (%): (4.9%)
  IGA Score ≤2 (‘Mild’or better), subjects (%): (73.2%)
Week 8, 25 mg QD, N=43
  IGA Score = 0 (‘Cleared’) or 1 (‘Minimal’), subjects (%): (27.9%)
  IGA Score = 0 (‘Cleared’), subjects (%): (2.3%)
  IGA Score ≤2 (‘Mild’or better), subjects (%): (55.8%)
Week 8, 50 mg QD, N=43
  IGA Score = 0 (‘Cleared’) or 1 (‘Minimal’), subjects (%): (44.2%)
  IGA Score = 0 (‘Cleared’), subjects (%): (4.7%)
  IGA Score ≤2 (‘Mild’or better), subjects (%): (74.4%)
Week 8, 100 mg BID, N=42
  IGA Score = 0 (‘Cleared’) or 1 (‘Minimal’), subjects (%): (64.3%)
  IGA Score = 0 (‘Cleared’), subjects (%): (19.0%)
  IGA Score ≤2 (‘Mild’or better), subjects (%): (78.6%)
Week 8, 100 mg QD, N=43
  IGA Score = 0 (‘Cleared’) or 1 (‘Minimal’), subjects (%): (46.5%)
  IGA Score = 0 (‘Cleared’), subjects (%): (9.3%)
  IGA Score ≤2 (‘Mild’or better), subjects (%): (72.1%)
Week 12, 25 mg BID, N=41
  IGA Score = 0 (‘Cleared’) or 1 (‘Minimal’), subjects (%): (43.9%)
  IGA Score = 0 (‘Cleared’), subjects (%): (7.3%)
  IGA Score ≤2 (‘Mild’or better), subjects (%): (78.0%)
Week 12, 25 mg QD, N=43
  IGA Score = 0 (‘Cleared’) or 1 (‘Minimal’), subjects (%): (25.6%)
  IGA Score = 0 (‘Cleared’), subjects (%): (7.0%)
  IGA Score ≤2 (‘Mild’or better), subjects (%): (72.1%)
Week 12, 50 mg QD, N=43
  IGA Score = 0 (‘Cleared’) or 1 (‘Minimal’), subjects (%): (51.2%)
  IGA Score = 0 (‘Cleared’), subjects (%): (9.3%)
  IGA Score ≤2 (‘Mild’or better), subjects (%): (81.4%)
Week 12, 100 mg BID, N=42
  IGA Score = 0 (‘Cleared’) or 1 (‘Minimal’), subjects (%): (66.7%)
  IGA Score = 0 (‘Cleared’), subjects (%): (40.5%)
  IGA Score ≤2 (‘Mild’or better), subjects (%): (85.7%)
Week 12, 100 mg QD, N=43
  IGA Score = 0 (‘Cleared’) or 1 (‘Minimal’), subjects (%): (53.5%)
  IGA Score = 0 (‘Cleared’), subjects (%): (18.6%)
  IGA Score ≤2 (‘Mild’or better), subjects (%): (81.4%)
Week 16, 25 mg BID, N=41
  IGA Score = 0 (‘Cleared’) or 1 (‘Minimal’), subjects (%): (51.2%)
  IGA Score = 0 (‘Cleared’), subjects (%): (14.6%)
  IGA Score ≤2 (‘Mild’or better), subjects (%): (73.2%)
Week 16, 25 mg QD, N=43
  IGA Score = 0 (‘Cleared’) or 1 (‘Minimal’), subjects (%): (39.5%)
  IGA Score = 0 (‘Cleared’), subjects (%): (16.3%)
  IGA Score ≤2 (‘Mild’or better), subjects (%): (67.4%)
Week 16, 50 mg QD, N=43
  IGA Score = 0 (‘Cleared’) or 1 (‘Minimal’), subjects (%): (58.1%)
  IGA Score = 0 (‘Cleared’), subjects (%): (34.9%)
  IGA Score ≤2 (‘Mild’or better), subjects (%): (81.4%)
Week 16, 100 mg BID, N=42
  IGA Score = 0 (‘Cleared’) or 1 (‘Minimal’), subjects (%): (64.3%)
  IGA Score = 0 (‘Cleared’), subjects (%): (45.2%)
  IGA Score ≤2 (‘Mild’or better), subjects (%): (81.0%)
Week 16, 100 mg QD, N=43
  IGA Score = 0 (‘Cleared’) or 1 (‘Minimal’), subjects (%): (62.8%)
  IGA Score = 0 (‘Cleared’), subjects (%): (27.9%)
  IGA Score ≤2 (‘Mild’or better), subjects (%): (79.1%)
Week 20, 25 mg BID, N=41
  IGA Score = 0 (‘Cleared’) or 1 (‘Minimal’), subjects (%): (48.8%)
  IGA Score = 0 (‘Cleared’), subjects (%): (19.5%)
  IGA Score ≤2 (‘Mild’or better), subjects (%): (75.6%)
Week 20, 25 mg QD, N=43
  IGA Score = 0 (‘Cleared’) or 1 (‘Minimal’), subjects (%): (44.2%)
  IGA Score = 0 (‘Cleared’), subjects (%): (14.0%)
  IGA Score ≤2 (‘Mild’or better), subjects (%): (65.1%)
Week 20, 50 mg QD, N=43
  IGA Score = 0 (‘Cleared’) or 1 (‘Minimal’), subjects (%): (55.8%)
  IGA Score = 0 (‘Cleared’), subjects (%): (20.9%)
  IGA Score ≤2 (‘Mild’or better), subjects (%): (81.4%)
Week 20, 100 mg BID, N=42
  IGA Score = 0 (‘Cleared’) or 1 (‘Minimal’), subjects (%): (61.9%)
  IGA Score = 0 (‘Cleared’), subjects (%): (42.9%)
  IGA Score ≤2 (‘Mild’or better), subjects (%): (81.0%)
Week 20, 100 mg QD, N=43
  IGA Score = 0 (‘Cleared’) or 1 (‘Minimal’), subjects (%): (58.1%)
  IGA Score = 0 (‘Cleared’), subjects (%): (16.3%)
